IC50 data for 66 compounds are collected here from patent US11154544B2, “Amide derivatives as Nav1.7 and Nav1.8 blockers” (RaQualia Pharma Inc., priority 2017, dated 2021).

Each structure is given as a SMILES string. pIC50: −log10 of the molar value. Where only a bound is given, the exact number is not on record here.

Chain of Nav1.7 (Q15858 whole entry): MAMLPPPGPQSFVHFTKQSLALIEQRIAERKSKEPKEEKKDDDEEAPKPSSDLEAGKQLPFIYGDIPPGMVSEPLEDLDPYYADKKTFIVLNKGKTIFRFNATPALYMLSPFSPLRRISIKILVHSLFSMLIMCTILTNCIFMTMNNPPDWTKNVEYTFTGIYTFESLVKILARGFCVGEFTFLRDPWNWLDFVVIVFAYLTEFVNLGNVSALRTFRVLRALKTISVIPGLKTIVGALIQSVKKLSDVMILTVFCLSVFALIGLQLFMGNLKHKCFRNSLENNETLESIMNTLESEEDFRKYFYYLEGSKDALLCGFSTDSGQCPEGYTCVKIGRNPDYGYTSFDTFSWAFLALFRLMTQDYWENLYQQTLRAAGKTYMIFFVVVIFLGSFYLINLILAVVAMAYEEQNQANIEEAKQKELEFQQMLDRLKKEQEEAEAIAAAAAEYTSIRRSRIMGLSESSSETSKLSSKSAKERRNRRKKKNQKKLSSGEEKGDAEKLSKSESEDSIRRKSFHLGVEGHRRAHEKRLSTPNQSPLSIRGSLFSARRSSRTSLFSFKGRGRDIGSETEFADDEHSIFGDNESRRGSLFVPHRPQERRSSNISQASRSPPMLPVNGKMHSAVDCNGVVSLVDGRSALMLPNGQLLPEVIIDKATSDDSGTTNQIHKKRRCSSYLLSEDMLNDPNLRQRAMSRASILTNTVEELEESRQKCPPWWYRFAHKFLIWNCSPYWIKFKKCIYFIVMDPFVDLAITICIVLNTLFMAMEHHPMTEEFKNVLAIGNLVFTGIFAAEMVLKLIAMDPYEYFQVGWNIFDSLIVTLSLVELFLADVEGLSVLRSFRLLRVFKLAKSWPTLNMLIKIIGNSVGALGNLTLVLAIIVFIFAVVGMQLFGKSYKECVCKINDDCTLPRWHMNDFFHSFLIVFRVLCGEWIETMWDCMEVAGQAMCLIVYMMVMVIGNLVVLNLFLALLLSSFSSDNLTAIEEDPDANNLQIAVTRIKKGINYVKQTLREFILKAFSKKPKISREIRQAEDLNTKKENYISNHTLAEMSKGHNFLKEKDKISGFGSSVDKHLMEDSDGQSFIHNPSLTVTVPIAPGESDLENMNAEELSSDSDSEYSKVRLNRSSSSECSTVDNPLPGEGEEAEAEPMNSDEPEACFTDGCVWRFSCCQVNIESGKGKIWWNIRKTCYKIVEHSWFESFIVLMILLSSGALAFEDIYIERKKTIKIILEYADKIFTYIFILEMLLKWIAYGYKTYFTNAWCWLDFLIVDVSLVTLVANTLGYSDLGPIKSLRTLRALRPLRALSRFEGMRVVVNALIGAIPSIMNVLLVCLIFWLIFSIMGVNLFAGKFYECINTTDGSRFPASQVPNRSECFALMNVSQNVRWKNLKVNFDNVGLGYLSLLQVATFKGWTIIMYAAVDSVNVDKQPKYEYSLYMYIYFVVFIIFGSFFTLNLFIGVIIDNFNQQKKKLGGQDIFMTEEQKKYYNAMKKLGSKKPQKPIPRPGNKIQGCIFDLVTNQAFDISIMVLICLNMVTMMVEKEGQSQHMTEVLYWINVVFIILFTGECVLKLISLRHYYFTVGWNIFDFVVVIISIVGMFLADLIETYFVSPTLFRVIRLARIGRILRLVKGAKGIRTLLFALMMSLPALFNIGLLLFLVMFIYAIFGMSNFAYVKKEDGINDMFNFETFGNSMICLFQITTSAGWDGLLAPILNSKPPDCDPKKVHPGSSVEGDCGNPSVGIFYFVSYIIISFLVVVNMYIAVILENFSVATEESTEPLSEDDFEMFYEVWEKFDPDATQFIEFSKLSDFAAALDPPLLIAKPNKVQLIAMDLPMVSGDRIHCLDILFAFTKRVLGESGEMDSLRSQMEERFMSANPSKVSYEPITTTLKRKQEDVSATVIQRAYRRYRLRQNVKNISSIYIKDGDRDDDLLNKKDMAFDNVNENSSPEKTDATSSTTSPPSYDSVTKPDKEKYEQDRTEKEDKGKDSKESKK

The test addresses Nav1.7 (Homo sapiens (Human), UniProt Q15858). As to the kind of experiment: EFS-FRET assay. The note with it: EFS-FRET, CHO cells expressing human Nav1.7; read-out: IC50 against Nav1.7. It counts as cell-based. How it is done:
This screen is used to determine the effects of compounds on human Nav1.7 channels, utilizing electrical field stimulation (EFS) system in 96-well plate format on FDSS (Hamamatsu Photonics) platform. The change of membrane potential is monitored with FRET dye pair, DiSBAC2(3) and PTS 18.
CHO (Chinese hamster ovary) cells expressing human Nav1.7 channels are grown in T225 flasks, in a 5% CO2 humidified incubator to about 80% confluence. Media composition consists of HAM/F^.12 with Glutamax I, 10% FCS, 100 units/mL penicillin and 100 microgram/mL hygromycin.
Seed each cell lines (1×10^5 cells/well) into 96-well plates prior to experimentation.
Incubate at 37° C. in 5% CO2, for 24 hours.
Wash each well with assay buffer (140 mM NaCl, […], 10 mM D-Glucose, 2 mM CaCl2, 1 mM MgCl2, 10 mM HEPES, pH 7.4 adjusted with NaOH) twice.
Add 1st loading solution containing 10 microM PTS18 and 0.06% Pluronic F-127 in assay buffer.
Incubate the plate at rt in dark for 1 hour. • Remove 1st loading solution and add 2nd loading solution containing 12.5 microM DiSBAC2(3), 1.25 mM Xylene Fast Yellow and 0.0075% Pluronic F-127 in assay buffer. • Place the plate under the dark at rt for 25 minutes. • Add compound solutions into the assay plate. • Set the assay plate in FDSS and place an EFS device on the plate. • Measure EFS-induced fluorescent response by FDSS.
The data are analyzed and reported as normalized ratios of intensities measured at […]. The process of calculating these ratios is performed as follows:
This analysis is performed using a computerized specific program designed for
FDSS generated data. Fluorescence ratio values are plotted using XLfit to determine an IC50 value for each, compound.
Consider `CC(=O)Nc1cc(C(=O)NCCNc2ncc(C(F)(F)F)cc2Cl)ccn1` [Example 2], for which the pIC50 (commonly the IC50 on a negative log10 scale, so that one unit is a factor of ten) was above 6.30.
The result for `CCC(=O)Nc1cc(C(=O)NCCNc2ncc(C(F)(F)F)cc2Cl)cc(C)n1` [Example 5] reads above 6.30; that for `O=C(NCCNc1ncc(C(F)(F)F)cc1Cl)c1ccnc(NC(=O)C2CC2)c1` [Example 6], above 6.30.
The figure for `CC(C)C(=O)Nc1cc(C(=O)NCCNc2ncc(C(F)(F)F)cc2Cl)ccn1` [Example 7] is above 6.30; for `CCC(=O)Nc1cc(C(=O)NCCOc2ncc(C(F)(F)F)cc2Cl)ccn1` [Example 9] it is above 6.30.
The result for `CC(=O)Nc1cc(C(=O)NCCOc2ncc(C(F)(F)F)cc2Cl)cc(C)n1` [Example 10] reads above 6.30; that for `CCC(=O)Nc1cc(C(=O)NCCOc2ccc(C(F)(F)F)cn2)cc(C)n1` [Example 12], above 6.30.
With `O=C(NCCOc1ncc(C(F)(F)F)cc1Cl)c1ccnc(NC(=O)C2CC2)c1` [Example 14], the pIC50 was above 6.30.
The figure for `CCC(=O)Nc1cc(C(=O)NCCOc2ncc(C(F)(F)F)cc2Cl)cc(C)n1` [Example 15] is above 6.30; for `Cc1cc(C(=O)NCCOc2ncc(C(F)(F)F)cc2Cl)nc(NC(=O)C2CC2)n1` [Example 16] it is above 6.30; for `CC(=O)Nc1cc(C(=O)NCCOc2cccc(OC(F)(F)F)c2)cc(C)n1` [Example 19] it is above 6.30.
For `CCC(=O)Nc1cc(C(=O)NCCOc2ccc(C(F)(F)F)cc2Cl)ccn1` [Example 21], the pIC50 is above 6.30.
The figure for `CC(C)C(=O)Nc1cc(C(=O)NCCOc2ccc(C(F)(F)F)cc2Cl)ccn1` [Example 22] is above 6.30; for `CC(=O)Nc1cc(C(=O)NCCOc2ccc(C(F)(F)F)cc2Cl)cc(C)n1` [Example 23] it is above 6.30; for `Cc1cc(C(=O)NCCOc2ncc(C(F)(F)F)cc2Cl)cc(NC(=O)C2CC2)n1` [Example 25] it is above 6.30.
Take `Cc1cc(C(=O)NCCNc2ncc(C(F)(F)F)cc2Cl)cc(NC(=O)C2CC2)n1` [Example 26]: the pIC50 was above 6.30.
The figure for `CC(=O)Nc1cc(C(=O)NCCCc2ncc(C(F)(F)F)cc2Cl)cc(C)n1` [Example 28] is above 6.30.
The figure for `CCC(=O)Nc1cc(C(=O)NCCCc2ncc(C(F)(F)F)cc2Cl)ccn1` [Example 30] is above 6.30; for `CC(=O)Nc1cc(C(=O)NCCOc2ccc(S(F)(F)(F)(F)F)cc2)cc(C)n1` [Example 31] it is above 6.30; for `CCC(=O)Nc1cc(C(=O)NCCOc2ccc(S(F)(F)(F)(F)F)cc2)ccn1` [Example 32] it is above 6.30.
The figure for `O=C(NCCOc1ccc(S(F)(F)(F)(F)F)cc1)c1ccnc(NC(=O)C2CC2)c1` [Example 33] is above 6.30.
`CC(C)C(=O)Nc1cc(C(=O)NCCOc2ccc(S(F)(F)(F)(F)F)cc2)ccn1` [Example 34]: the pIC50 was above 6.30.
Turning to `O=C(NCCOc1ncc(C(F)(F)F)cc1Cl)c1ccnc(NC(=O)C2CC2)n1` [Example 36], the pIC50 is above 6.30.
The figure for `Cc1cc(C(=O)NCCNc2ncc(C(F)(F)F)cc2Cl)cc(NC(=O)C(C)C)n1` [Example 37] is above 6.30.
On to `O=C(NCCNc1ncc(C(F)(F)F)cc1Cl)c1ccnc(NC(=O)C2CC2)n1` [Example 38], for which the pIC50 is above 6.30.
Consider `CCC(=O)Nc1cc(C(=O)NCCOc2ccc(C(F)(F)F)cc2Cl)cc(C)n1` [Example 39], for which the pIC50 is above 6.30.
The figure for `O=C(NCCOc1ccc(C(F)(F)F)cc1Cl)c1ccnc(NC(=O)C2CC2)c1` [Example 40] is above 6.30.
The figure for `Cc1cc(C(=O)NCCOc2ccc(C(F)(F)F)cc2Cl)cc(NC(=O)C2CC2)n1` [Example 41] is above 6.30; for `Cc1cc(C(=O)NCCOc2ccc(C(F)(F)F)cc2Cl)cc(NC(=O)C(C)C)n1` [Example 42] it is above 6.30.
As for `O=C(NCCOc1ccc(C(F)(F)F)cc1Cl)c1ccnc(NC(=O)C2CC2)n1` [Example 43], the pIC50 was above 6.30.
As for `CCC(=O)Nc1cc(C(=O)NCCOc2ccc3cc(C(F)(F)F)ccc3n2)cc(C)n1` [Example 44], the pIC50 was above 6.30.
The result for `O=C(NCCOc1ccc2cc(C(F)(F)F)ccc2n1)c1ccnc(NC(=O)C2CC2)c1` [Example 45] reads above 6.30.
`CC(C)C(=O)Nc1cc(C(=O)NCCOc2ccc3cc(C(F)(F)F)ccc3n2)ccn1` [Example 46]: the pIC50 was above 6.30.
Take `CCC(=O)Nc1cc(C(=O)NCCOc2ccc3cc(OCC(F)(F)F)ccc3c2)cc(C)n1` [Example 49]: the pIC50 is above 6.30.
The figure for `CC(=O)Nc1cc(C(=O)NCCSc2ncc(C(F)(F)F)cc2Cl)cc(C)n1` [Example 54] is above 6.30; for `CC(=O)Nc1cc(C(=O)NCCOc2ccc3cc(C(F)(F)F)ccc3n2)ccn1` [Example 56] it is above 6.30.
With `CCC(=O)Nc1cc(C(=O)NCCOc2ccc3cc(C(F)(F)F)ccc3n2)ccn1` [Example 57], the pIC50 was above 6.30.
The figure for `CC(=O)Nc1cc(C(=O)NCCOc2ccc3cc(C(F)(F)F)ccc3n2)cc(C)n1` [Example 58] is above 6.30.
For the compound `Cc1cc(C(=O)NCCOc2ccc3cc(C(F)(F)F)ccc3n2)cc(NC(=O)C2CC2)n1` [Example 59], the pIC50 is above 6.30.
The figure for `Cc1cc(C(=O)NCCOc2ccc3cc(C(F)(F)F)ccc3n2)cc(NC(=O)C(C)C)n1` [Example 60] is above 6.30.
Take `CCC(=O)Nc1cc(C(=O)N[C@H](C)COc2ncc(C(F)(F)F)cc2Cl)ccn1` [Example 64]: the pIC50 is above 6.30.
Regarding `CC(=O)Nc1cc(C(=O)N[C@H](C)COc2ncc(C(F)(F)F)cc2Cl)cc(C)n1` [Example 65], the pIC50 was above 6.30.
The figure for `CCC(=O)Nc1cc(C(=O)N[C@H](C)COc2ncc(C(F)(F)F)cc2Cl)cc(C)n1` [Example 66] is above 6.30; for `C[C@H](COc1ncc(C(F)(F)F)cc1Cl)NC(=O)c1ccnc(NC(=O)C2CC2)c1` [Example 67] it is above 6.30.
The figure for `CC(C)C(=O)Nc1cc(C(=O)N[C@H](C)COc2ncc(C(F)(F)F)cc2Cl)ccn1` [Example 68] is above 6.30; for `Cc1cc(C(=O)N[C@H](C)COc2ncc(C(F)(F)F)cc2Cl)cc(NC(=O)C2CC2)n1` [Example 69] it is above 6.30.
For the compound `Cc1cc(C(=O)N[C@H](C)COc2ncc(C(F)(F)F)cc2Cl)cc(NC(=O)C(C)C)n1` [Example 70], the pIC50 was above 6.30.
The result for `C[C@H](COc1ncc(C(F)(F)F)cc1Cl)NC(=O)c1ccnc(NC(=O)C2CC2)n1` [Example 71] reads above 6.30.
The figure for `CC(=O)Nc1cc(C(=O)NC[C@@H](C)Oc2ncc(C(F)(F)F)cc2Cl)cc(C)n1` [Example 73] is above 6.30.
The result for `CCC(=O)Nc1cc(C(=O)NC[C@@H](C)Oc2ncc(C(F)(F)F)cc2Cl)cc(C)n1` [Example 74] reads above 6.30; that for `Cc1cc(C(=O)NC[C@@H](C)Oc2ncc(C(F)(F)F)cc2Cl)cc(NC(=O)C2CC2)n1` [Example 76], above 6.30; that for `Cc1cc(C(=O)NC[C@@H](C)Oc2ncc(C(F)(F)F)cc2Cl)cc(NC(=O)C(C)C)n1` [Example 77], above 6.30.
As to `CC(C)C(=O)Nc1cc(C(=O)NCCOc2ccnc3cc(C(F)(F)F)ccc23)ccn1` [Example 80], the pIC50 was above 6.30.
The result for `CCCC(=O)Nc1cc(C(=O)NCCOc2ncc(C(F)(F)F)cc2Cl)ccn1` [Example 87] reads above 6.30.
As to `CCC(=O)Nc1nc(C)cc(C(=O)NCCOc2ncc(C(F)(F)F)cc2Cl)n1` [Example 89], the pIC50 was above 6.30.
The result for `Cc1cc(C(=O)NCCOc2ncc(C(F)(F)F)cc2Cl)nc(NC(=O)C(C)C)n1` [Example 90] reads above 6.30; that for `CC(=O)Nc1cc(C(=O)NCCOc2ccc(C(F)(F)F)cc2F)cc(C)n1` [Example 93], above 6.30; that for `CCC(=O)Nc1cc(C(=O)NCCOc2ccc(C(F)(F)F)cc2F)cc(C)n1` [Example 94], above 6.30.
The result for `CC(C)C(=O)Nc1cc(C(=O)NCCOc2ccc(C(F)(F)F)cc2F)ccn1` [Example 96] reads above 6.30; that for `Cc1cc(C(=O)NCCOc2ccc(C(F)(F)F)cc2F)cc(NC(=O)C2CC2)n1` [Example 97], above 6.30; that for `Cc1cc(C(=O)NCCOc2ccc(C(F)(F)F)cc2F)cc(NC(=O)C(C)C)n1` [Example 98], above 6.30.
Regarding `CCC(=O)Nc1cc(C(=O)NCCOc2ccc(OC(F)(F)F)cc2Cl)cc(C)n1` [Example 105], the pIC50 is above 6.30.
The result for `O=C(NCCOc1ccc(OC(F)(F)F)cc1Cl)C1C=C(NC(=O)C2CC2)N=CC1` (stereo not drawn) [Example 106] reads above 6.30; that for `CC(C)C(=O)Nc1cc(C(=O)NCCOc2ccc(OC(F)(F)F)cc2Cl)ccn1` [Example 107], above 6.30; that for `Cc1cc(C(=O)NCCOc2ccc(OC(F)(F)F)cc2Cl)cc(NC(=O)C(C)C)n1` [Example 108], above 6.30.
The figure for `CC(=O)Nc1cc(C(=O)NCCOc2ccc(OC(F)(F)F)cc2Cl)ccn1` [Example 113] is above 6.30.
